The numbers were not newly measured in patent US20090099094A1, “Use of Somatostatin Agonists to Treat Medullary Thyroid Carcinoma” (priority 2007, published 2009), which cites them from elsewhere.

The subject of the series is MTC. The following applies: cited from earlier work.

For the molecule `C[C@@H](O)[C@@H]1NC(=O)[C@H](CCCCN)NC(=O)[C@@H](Cc2c[nH]c3ccccc23)NC(=O)[C@H](Cc2ccccc2)NC(=O)[C@@H](NC(=O)[C@H](N)Cc2ccccc2)CSSC[C@@H](C(=O)N[C@H](CO)[C@@H](C)O)NC1=O` [octreotide], where the note is “MTC, commercially available somatostatin analogs”, the suppressing calcitonin secretion result was “lack of efficacy”. The “reducing tumour size and/or increasing patient survival rate” value (treatment of MTC patients) is given as “little effect”.
